Laboratory results published in patent US20260092179A1, “GENETICALLY MODIFIED HOST CELLS PRODUCING VIOLACEIN, ANALOGUES, AND DERIVATIVES THEREOF” (OCTARINE BIO APS, priority 2022, published 2026).

How the values were obtained:
Assay type in all cases: physicochemical
[1] = Acidic pH stability of dyed fabrics (colour fastness, ΔE); conditions: pH 5 with HCl
Description: (§1) In order to assess the stability and colour fastness of violacein and violacein derivatives dyed onto fabrics, dyed fabrics were subjected to a number of conditions. Fabrics were dyed according to Example 18 and colour coordinates and colour change before and after exposure to a given condition were determined as described in Example 18. To measure temperature stability, fabrics were incubated in an oven set to 80° c. for 4 h. To measure stability under acid and alkaline conditions, fabrics were fully submerged in water solutions set to pH 8 with NaOH and pH 5 with HCl and incubated at room temperature for 30 minutes. Fabrics were then incubated at 37° c. for 4 h. To measure stability during laundering, fabrics were washed at 30° c. under the “mix” setting of a Siemens IQ300 washing machine, then dried in a Siemens IQ300 dryer until dry. To measure artificial light stability, fabrics were placed under an LED lamp at room temperature for 16 h. To measure UV light stability, fabrics were placed under a UV lamp at room temperature for 1 h.

[2] = Alkaline pH stability of dyed fabrics (colour fastness, ΔE); conditions: pH 8 with NaOH
Description: as §1

[3] = UV absorption capability (absorbance maxima, UV-A, UV-B, UV-C absorption) by HPLC; conditions: for Total UV absorption UV C (245 nm): AUC of HPLC peak at 245 nm per mM; for Total UV absorption UV B (305 nm): AUC of HPLC peak at 305 nm per mM; for Total UV absorption UV A (360 nm): AUC of HPLC peak at 360 nm per mM
Description: The software Agilent Openlab CDS Chemstation Rev.
Violacein is reported as being a potent UV absorbent able to effectively absorb UV radiation, however, much less is known about the other violacein derivatives. To investigate the potential of using violacein and violacein derivatives as UV inhibitors and to potentially impart UV protection to fabrics, the UV absorption spectra of each compound was analyzed by HPLC and the total absorption capability at each of the most relevant UV wavelengths quantified.
For the quantification of UV absorption capacity of the compound of interest, a chromatographic separation on the F5 column and a gradient of water/acetonitrile containing 0.05% formic acid was run according to Example 5). […] The compounds were quantified based on the signal at 230 nm, using calibration curves of authentic analytical standards.
The UV absorption capacity is represented in mAU.min/mM. UV-A, UV-B and UV-C represent the most relevant regions where UV protection is required. UV-C is the most harmful type of UV radiation and can be generated by inorganic sources. UV-B radiation predominantly comes from the suns rays and is responsible for sun burn. UV-A radiation is also derived predominantly from the suns rays, and while UV-A radiation is less harmful than UV-B or UV-C but is much more prevalent.

[4] = Acrylic, before and after the stability test
[5] = Bleached cotton, before and after the stability test
[6] = Diacetate, before and after the stability test
[7] = Nylon 6,6, before and after the stability test
[8] = Polyester, before and after the stability test
[9] = Wool, before and after the stability test

O=C1NC(c2c[nH]c3ccccc23)=C/C1=C1\C(=O)Nc2ccccc21 [deoxyviolacein] showed an L ([1]; Acrylic, After test) of 59.8, an a ([1]; Acrylic, After test) of 2.01 and a b ([1]; Acrylic, After test) of −3.77. The L ([1]; Acrylic, Before test) was 58.82, the a ([1]; Acrylic, Before test) was 2.34 and the b ([1]; Acrylic, Before test) was −2.86. It also gave a ΔE [1, 4] of 1.38, an L ([1]; Bleached cotton, After test) of 60.27 and an a ([1]; Bleached cotton, After test) of 0.74. It also gave a b ([1]; Bleached cotton, After test) of −8.67, an L ([1]; Bleached cotton, Before test) of 58.08 and an a ([1]; Bleached cotton, Before test) of 1.02. For the same compound, the b ([1]; Bleached cotton, Before test) was −7.23, the ΔE [1, 5] was 2.64 and the L ([1]; Diacetate, After test) was 46.41. The a ([1]; Diacetate, After test) was 12.25, the b ([1]; Diacetate, After test) was −16.83 and the L ([1]; Diacetate, Before test) was 46.86. The a ([1]; Diacetate, Before test) was 12.01, the b ([1]; Diacetate, Before test) was −17.99 and the ΔE [1, 6] was 1.27. For the same compound, the L ([1]; Nylon 6,6, After test) was 44.46, the a ([1]; Nylon 6,6, After test) was 6.37 and the b ([1]; Nylon 6,6, After test) was −22.27. The L ([1]; Nylon 6,6, Before test) was 43, the a ([1]; Nylon 6,6, Before test) was 5.21 and the b ([1]; Nylon 6,6, Before test) was −20.47. For the same compound, the ΔE [1, 7] was 2.59, the L ([1]; Polyester, After test) was 64.95 and the a ([1]; Polyester, After test) was 2.03. The b ([1]; Polyester, After test) was −5.57, the L ([1]; Polyester, Before test) was 62.77 and the a ([1]; Polyester, Before test) was 2. The b ([1]; Polyester, Before test) was −5.04, the ΔE [1, 8] was 2.24 and the L ([1]; Wool, After test) was 64.01. The a ([1]; Wool, After test) was 0.41, the b ([1]; Wool, After test) was −0.81 and the L ([1]; Wool, Before test) was 63.73. The a ([1]; Wool, Before test) was 0.62, the b ([1]; Wool, Before test) was −0.94 and the ΔE [1, 9] was 0.37. The L ([2]; Acrylic, After test) was 59.52, the a ([2]; Acrylic, After test) was 0.99 and the b ([2]; Acrylic, After test) was −2.75. It also gave an L ([2]; Acrylic, Before test) of 60.91, an a ([2]; Acrylic, Before test) of 1.48 and a b ([2]; Acrylic, Before test) of −2.6. The ΔE [2, 4] was 1.48, the L ([2]; Bleached cotton, After test) was 62.83 and the a ([2]; Bleached cotton, After test) was 2.23. It also gave a b ([2]; Bleached cotton, After test) of −8.43, an L ([2]; Bleached cotton, Before test) of 61.33 and an a ([2]; Bleached cotton, Before test) of 1.92. For the same compound, the b ([2]; Bleached cotton, Before test) was −9.6, the ΔE [2, 5] was 1.93 and the L ([2]; Diacetate, After test) was 53.77. It also gave an a ([2]; Diacetate, After test) of 9.48, a b ([2]; Diacetate, After test) of −13.38 and an L ([2]; Diacetate, Before test) of 53.4. For the same compound, the a ([2]; Diacetate, Before test) was 9.48, the b ([2]; Diacetate, Before test) was −14.88 and the ΔE [2, 6] was 1.54. The L ([2]; Nylon 6,6, After test) was 46, the a ([2]; Nylon 6,6, After test) was 4.44 and the b ([2]; Nylon 6,6, After test) was −20.31. It also gave an L ([2]; Nylon 6,6, Before test) of 45.47, an a ([2]; Nylon 6,6, Before test) of 6.49 and a b ([2]; Nylon 6,6, Before test) of −22.12. The ΔE [2, 7] was 2.79, the L ([2]; Polyester, After test) was 67.22 and the a ([2]; Polyester, After test) was 2.02. The b ([2]; Polyester, After test) was −3.88, the L ([2]; Polyester, Before test) was 66.7 and the a ([2]; Polyester, Before test) was 1.3. It also gave a b ([2]; Polyester, Before test) of −4.19, a ΔE [2, 8] of 0.94 and an L ([2]; Wool, After test) of 66.95. The a ([2]; Wool, After test) was 0.82, the b ([2]; Wool, After test) was −0.41 and the L ([2]; Wool, Before test) was 65.33. It also gave an a ([2]; Wool, Before test) of 0.19, a b ([2]; Wool, Before test) of 0.13 and a ΔE [2, 9] of 1.82. The “UV absorption capability in the UV-C region” value ([3]; 245 nm) was “particularly high”, the “Total UV absorption UV C (245 nm)” value [3] was 9251.6 (mAU · min)/mM and the “Total UV absorption UV B (305 nm)” value [3] was 0 (mAU · min)/mM. For the same compound, the “Total UV absorption UV A (360 nm)” value [3] was 702.8 (mAU · min)/mM.
With O=C1N=C(c2c[nH]c3ccc(O)cc23)C=C1c1c[nH]c2ccccc12 [proviolacein] the L ([1]; Acrylic, After test) was 58.2, the a ([1]; Acrylic, After test) was −1.53 and the b ([1]; Acrylic, After test) was 3.12. The L ([1]; Acrylic, Before test) was 59.15, the a ([1]; Acrylic, Before test) was −0.61 and the b ([1]; Acrylic, Before test) was 1.45. The ΔE [1, 4] was 2.13, the L ([1]; Bleached cotton, After test) was 65.48 and the a ([1]; Bleached cotton, After test) was 1.87. The b ([1]; Bleached cotton, After test) was 2.2, the L ([1]; Bleached cotton, Before test) was 62.48 and the a ([1]; Bleached cotton, Before test) was 1.73. The b ([1]; Bleached cotton, Before test) was 2.27, the ΔE [1, 5] was 3.00 and the L ([1]; Diacetate, After test) was 59.6. The a ([1]; Diacetate, After test) was 4.35, the b ([1]; Diacetate, After test) was 7.87 and the L ([1]; Diacetate, Before test) was 60.94. For the same compound, the a ([1]; Diacetate, Before test) was 4.79, the b ([1]; Diacetate, Before test) was 4.9 and the ΔE [1, 6] was 3.29. The L ([1]; Nylon 6,6, After test) was 52.72, the a ([1]; Nylon 6,6, After test) was −1.67 and the b ([1]; Nylon 6,6, After test) was −3.52. It also gave an L ([1]; Nylon 6,6, Before test) of 50.84, an a ([1]; Nylon 6,6, Before test) of 0.04 and a b ([1]; Nylon 6,6, Before test) of −4.68. It also gave a ΔE [1, 7] of 2.79, an L ([1]; Polyester, After test) of 64.14 and an a ([1]; Polyester, After test) of −1.28. The b ([1]; Polyester, After test) was 2.92, the L ([1]; Polyester, Before test) was 64.55 and the a ([1]; Polyester, Before test) was −1.43. It also gave a b ([1]; Polyester, Before test) of 1.3, a ΔE [1, 8] of 1.68 and an L ([1]; Wool, After test) of 66.56. For the same compound, the a ([1]; Wool, After test) was −0.93, the b ([1]; Wool, After test) was 5.56 and the L ([1]; Wool, Before test) was 65.49. The a ([1]; Wool, Before test) was −1.55, the b ([1]; Wool, Before test) was 5.81 and the ΔE [1, 9] was 1.26. For the same compound, the L ([2]; Acrylic, After test) was 58.76, the a ([2]; Acrylic, After test) was −2.16 and the b ([2]; Acrylic, After test) was 3.85. For the same compound, the L ([2]; Acrylic, Before test) was 57.87, the a ([2]; Acrylic, Before test) was −0.46 and the b ([2]; Acrylic, Before test) was 1.91. The ΔE [2, 4] was 2.73, the L ([2]; Bleached cotton, After test) was 64.37 and the a ([2]; Bleached cotton, After test) was 2.22. The b ([2]; Bleached cotton, After test) was 2.08, the L ([2]; Bleached cotton, Before test) was 63.78 and the a ([2]; Bleached cotton, Before test) was 2.31. The b ([2]; Bleached cotton, Before test) was 1.4, the ΔE [2, 5] was 0.90 and the L ([2]; Diacetate, After test) was 61.54. It also gave an a ([2]; Diacetate, After test) of 3.25, a b ([2]; Diacetate, After test) of 6.78 and an L ([2]; Diacetate, Before test) of 60.55. It also gave an a ([2]; Diacetate, Before test) of 3.12, a b ([2]; Diacetate, Before test) of 6.29 and a ΔE [2, 6] of 1.11. The L ([2]; Nylon 6,6, After test) was 50.89, the a ([2]; Nylon 6,6, After test) was −1.8 and the b ([2]; Nylon 6,6, After test) was −3.04. The L ([2]; Nylon 6,6, Before test) was 52.98, the a ([2]; Nylon 6,6, Before test) was −2.5 and the b ([2]; Nylon 6,6, Before test) was −3.65. It also gave a ΔE [2, 7] of 2.29, an L ([2]; Polyester, After test) of 64.69 and an a ([2]; Polyester, After test) of −1.03. For the same compound, the b ([2]; Polyester, After test) was −0.34, the L ([2]; Polyester, Before test) was 64.55 and the a ([2]; Polyester, Before test) was −2.15. It also gave a b ([2]; Polyester, Before test) of 1.47, a ΔE [2, 8] of 2.13 and an L ([2]; Wool, After test) of 65.28. For the same compound, the a ([2]; Wool, After test) was −1.97, the b ([2]; Wool, After test) was 5.42 and the L ([2]; Wool, Before test) was 65.56. The a ([2]; Wool, Before test) was −2.33, the b ([2]; Wool, Before test) was 7.35 and the ΔE [2, 9] was 1.98. For the same compound, the “UV absorption capability in the UV-B region” value ([3]; 305 nm) was “particularly high”, the “Total UV absorption UV C (245 nm)” value [3] was 3142.9 (mAU · min)/mM and the “Total UV absorption UV B (305 nm)” value [3] was 4097.7 (mAU · min)/mM. The “Total UV absorption UV A (360 nm)” value [3] was 0 (mAU · min)/mM.
